Here are results for one substance from patent US20160089319A1, “ACTIVES FOR STIMULATING DIFFERENTIATION OF KERATINOCYTES TO LIGHTEN HYPERPIGMENTED SKIN” (ELC MANAGEMENT LLC, priority 2014, published 2016).

This test deals with basement membrane in hyperpigmented lesions. The test can be described thus: Further studies by the inventors on morphology of the basement membrane in hyperpigmented lesions (results not shown). As to conditions: formulation containing the substance but no Phytofix. Format: in vivo.

As for sodium ribonucleic acid, the “improvement of the morphology of the basement membrane” value is recorded as “no improvement of the morphology of the basement membrane”.
